Assay results: the supplement of paper PMC11451515

System: NOMO1
Assay: cell viability relative to DMSO control; higher = less cytotoxic
Settings: 48 h
Procedure, shortened: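 NOMO1 or SEM cells were plated at 500 cells/well and P12-Ichikawa cells at 1000 cells/well in 1536-well plates (5 μl), after each leukemia line had been adapted for at least four passages in each medium. Pin dosing delivered library compounds in DMSO at 11 threefold concentrations, 47 μM to 0.79 nM. CellTiter-Glo One luminescence was read after 48 h at 37°C. Viability is reported as a per-plate percentage of DMSO wells, with cell-free wells as background.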

[1] = HPLM + 10% dialyzed FBS, 0.000781 µM
[2] = HPLM + 10% dialyzed FBS, 0.00234 µM
[3] = HPLM + 10% dialyzed FBS, 0.00702 µM
[4] = HPLM + 10% dialyzed FBS, 0.0211 µM
[5] = HPLM + 10% dialyzed FBS, 0.0632 µM
[6] = HPLM + 10% dialyzed FBS, 0.19 µM
[7] = HPLM + 10% dialyzed FBS, 0.569 µM
[8] = HPLM + 10% dialyzed FBS, 1.71 µM
[9] = HPLM + 10% dialyzed FBS, 5.12 µM
[10] = HPLM + 10% dialyzed FBS, 15.4 µM
[11] = HPLM + 10% dialyzed FBS, 46.1 µM
[12] = RPMI 5 mM glucose + 10% FBS, 0.000781 µM
[13] = RPMI 5 mM glucose + 10% FBS, 0.00234 µM
[14] = RPMI 5 mM glucose + 10% FBS, 0.00702 µM
[15] = RPMI 5 mM glucose + 10% FBS, 0.0211 µM
[16] = RPMI 5 mM glucose + 10% FBS, 0.0632 µM
[17] = RPMI 5 mM glucose + 10% FBS, 0.19 µM
[18] = RPMI 5 mM glucose + 10% FBS, 0.569 µM
[19] = RPMI 5 mM glucose + 10% FBS, 1.71 µM
[20] = RPMI 5 mM glucose + 10% FBS, 5.12 µM
[21] = RPMI 5 mM glucose + 10% FBS, 15.4 µM
[22] = RPMI 5 mM glucose + 10% FBS, 46.1 µM
[23] = RPMI 5 mM glucose + 10% dialyzed FBS, 0.000781 µM
[24] = RPMI 5 mM glucose + 10% dialyzed FBS, 0.00234 µM
[25] = RPMI 5 mM glucose + 10% dialyzed FBS, 0.00702 µM
[26] = RPMI 5 mM glucose + 10% dialyzed FBS, 0.0211 µM
[27] = RPMI 5 mM glucose + 10% dialyzed FBS, 0.0632 µM
[28] = RPMI 5 mM glucose + 10% dialyzed FBS, 0.19 µM
[29] = RPMI 5 mM glucose + 10% dialyzed FBS, 0.569 µM
[30] = RPMI 5 mM glucose + 10% dialyzed FBS, 1.71 µM
[31] = RPMI 5 mM glucose + 10% dialyzed FBS, 5.12 µM
[32] = RPMI 5 mM glucose + 10% dialyzed FBS, 15.4 µM
[33] = RPMI 5 mM glucose + 10% dialyzed FBS, 46.1 µM

Row | SMILES | cell viability [1] [%] | cell viability [2] [%] | cell viability [3] [%] | cell viability [4] [%] | cell viability [5] [%] | cell viability [6] [%] | cell viability [7] [%] | cell viability [8] [%] | cell viability [9] [%] | cell viability [10] [%] | cell viability [11] [%] | cell viability [12] [%] | cell viability [13] [%] | cell viability [14] [%] | cell viability [15] [%] | cell viability [16] [%] | cell viability [17] [%] | cell viability [18] [%] | cell viability [19] [%] | cell viability [20] [%] | cell viability [21] [%] | cell viability [22] [%] | cell viability [23] [%] | cell viability [24] [%] | cell viability [25] [%] | cell viability [26] [%] | cell viability [27] [%] | cell viability [28] [%] | cell viability [29] [%] | cell viability [30] [%] | cell viability [31] [%] | cell viability [32] [%] | cell viability [33] [%]
1 | CN1\C(=C(\O)C2=C(C=CS2)[S+]1([O-])=O)C(=O)NC3=CC=CC=N3 | 116 | 122 | 123 | 125 | 112 | 112 | 109 | 114 | 95.4 | 100 | 44.6 | 100 | 106 | 113 | 111 | 113 | 114 | 94.4 | 101 | 100 | 93.1 | 29.3 | 113 | 114 | 117 | 116 | 110 | 114 | 97.3 | 107 | 109 | 92.7 | 46.3
2 | CC(C)(C)C(=O)Oc1ccc([S+](=O)([O-])Nc2ccccc2C(=O)NCC(=O)O)cc1 | 115 | 106 | 139 | 122 | 117 | 110 | 109 | 113 | 129 | 122 | 134 | 107 | 102 | 99.7 | 98.4 | 112 | 108 | 114 | 117 | 104 | 109 | 129 | 110 | 117 | 113 | 122 | 109 | 122 | 119 | 116 | 129 | 131 | 124
3 | Cc1cc(Nc2nc(N[C@@H](C)c3ncc(F)cn3)ncc2Cl)n[nH]1 | 89.6 | 95 | 113 | 124 | 113 | 113 | 109 | 63.3 | 19.9 | 19.5 | 28.5 | 114 | 126 | 117 | 124 | 114 | 123 | 125 | 116 | 98.4 | 19.5 | 15.7 | 108 | 119 | 105 | 127 | 127 | 120 | 126 | 135 | 112 | 38.3 | 23.8
4 | CN1CCC(CC1)COC2=CN=C(N=C2)C3=CC(=CC=C3)CN4/N=C(\C=C/C4=O)C5=CC(=CC=C5)C#N | 105 | 111 | 103 | 118 | 119 | 127 | 111 | 111 | 123 | 120 | 101 | 106 | 110 | 103 | 107 | 118 | 119 | 108 | 123 | 113 | 116 | 114 | 88 | 111 | 103 | 109 | 109 | 115 | 102 | 120 | 118 | 100 | 114
5 | CO[C@H]1C[C@@H]2CC[C@@H](C)[C@@](O)(O2)C(=O)C(=O)N2CCCC[C@H]2C(=O)O[C@H]([C@H](C)C[C@@H]2CC[C@@H](OC(=O)C(C)(CO)CO)[C@H](OC)C2)CC(=O)[C@H](C)/C=C(\C)[C@@H](O)[C@@H](OC)C(=O)[C@H](C)C[C@H](C)/C=C/C=C/C=C/1C | 91.2 | 113 | 105 | 98.5 | 93.4 | 102 | 98.6 | 92.8 | 93.9 | 82.1 | 64.7 | 108 | 108 | 114 | 117 | 98.3 | 113 | 110 | 110 | 77 | 74.5 | 60.3 | 96.1 | 115 | 106 | 103 | 108 | 101 | 101 | 108 | 93.2 | 71.6 | 64.5
6 | C=CC1=C(C(=O)O)N2C(=O)[C@@H](NC(=O)/C(=N\O)c3csc(N)n3)[C@H]2SC1 | 82.9 | 110 | 119 | 102 | 123 | 109 | 129 | 129 | 110 | 113 | 118 | 104 | 119 | 124 | 118 | 117 | 127 | 116 | 120 | 125 | 134 | 138 | 98.2 | 105 | 115 | 118 | 119 | 125 | 140 | 124 | 121 | 109 | 107
7 | O=C(NC[C@H](O)CN1CCc2ccccc2C1)c1cc(NC2COC2)ncn1 | 93.5 | 117 | 173 | 29.5 | 64.5 | 99.2 | 101 | 72.7 | 70.7 | 56.1 | 38.6 | 92.9 | 80.4 | 88.2 | 99.3 | 83 | 89.9 | 94.4 | 92.6 | 84.3 | 75.1 | 74.2 | 83.5 | 92.8 | 93.5 | 101 | 84.7 | 91.8 | 68.4 | 66.4 | 81.4 | 67.3 | 63.3
8 | COC[C@@H](NC(C)=O)C(=O)NCc1ccccc1 | 112 | 119 | 117 | 132 | 116 | 118 | 114 | 117 | 107 | 105 | 86.7 | 95.9 | 110 | 97 | 102 | 118 | 109 | 119 | 104 | 104 | 112 | 64.8 | 106 | 117 | 116 | 114 | 125 | 115 | 125 | 124 | 131 | 118 | 69.5
9 | ClC1=CC(=CC=C1)N2CCN(CCCN3\N=C4\C=C/C=C\N4C3=O)CC2 |  |  |  |  |  |  |  |  |  |  |  | 113 | 121 | 123 | 137 | 126 | 137 | 142 | 147 | 137 | 141 | 137 |  |  |  |  |  |  |  |  |  |  | 
10 | Cc1ncc(OC[C@@]2(c3cccc(F)c3)C[C@H]2C(=O)Nc2ccc(F)cn2)c(C)n1 | 108 | 106 | 122 | 120 | 125 | 129 | 117 | 105 | 120 | 117 | 108 | 105 | 93.8 | 125 | 92.7 | 105 | 113 | 107 | 92.2 | 102 | 101 | 116 | 102 | 107 | 105 | 106 | 119 | 110 | 97 | 101 | 112 | 110 | 116
11 | CN(C/C=C/C#CC(C)(C)C)Cc1cccc2ccccc12 | 93.8 | 125 | 104 | 94.1 | 108 | 104 | 108 | 96.4 | 98 | 92.4 | 106 | 86.4 | 96.7 | 86.2 | 85.1 | 93.2 | 91.8 | 103 | 87.2 | 90 | 94.5 | 100 | 87.9 | 82.4 | 95.8 | 91.6 | 107 | 90.1 | 93.9 | 91.6 | 90.2 | 98.8 | 109
12 | CC(C)Oc1cc(Nc2nc(N[C@@H](C)c3ccc(F)cn3)ncc2Cl)n[nH]1 | 104 | 113 | 120 | 114 | 99 | 96.8 | 127 | 94.1 | 101 | 108 | 92.4 | 107 | 100 | 111 | 110 | 104 | 104 | 116 | 53.7 | 60.4 | 68 | 72.6 | 101 | 109 | 115 | 100 | 134 | 110 | 110 | 61.6 | 57.6 | 68.9 | 85.9
13 | CCN(CC)CCCCNc1nc2cc(Cl)c(Cl)cc2nc1-c1ccc(-c2cccs2)s1 | 101 | 124 | 123 | 128 | 111 | 137 | 137 | 121 | 138 | 98.4 | 3.87 | 97 | 103 | 111 | 115 | 123 | 119 | 123 | 102 | 117 | 113 | 5.9 | 98.3 | 112 | 108 | 112 | 110 | 119 | 114 | 108 | 112 | 108 | 5.42
14 | C1CCC(C(CC2CCCCN2)C2CCCCC2)CC1 (stereo not drawn) | 121 | 111 | 127 | 111 | 140 | 127 | 132 | 150 | 131 | 118 | 5.65 | 108 | 116 | 133 | 144 | 116 | 122 | 132 | 115 | 131 | 121 | 6.9 | 110 | 108 | 124 | 107 | 114 | 130 | 114 | 131 | 116 | 98.1 | 6.09
15 | OC(=O)\C1=C\N(C2=CC=C(F)C=C2)C3=C(C=C(F)C(=C3)N4CCNCC4)C1=O | 113 | 99.1 | 116 | 111 | 129 | 122 | 114 | 105 | 101 | 95.6 | 98.6 | 103 | 99.1 | 110 | 101 | 104 | 104 | 117 | 104 | 115 | 98.4 | 94.6 | 107 | 106 | 116 | 105 | 106 | 113 | 133 | 100 | 105 | 104 | 85.8
